Assay results: PMC8274062, “Promising Non-cytotoxic Monosubstituted Chalcones to Target Monoamine Oxidase-B” (ACS Medicinal Chemistry Letters, 2021)
“And” between values parts separate entries of the source, which are not always exact repeats. Equal values may be shown once.

Assays:
[1] = test system: A2780 (human ovarian carcinoma cells); test: Cell growth assay (trypan blue), A2780; format: cell-based; conditions: A2780, 72 h of incubation
[2] = test system: HT-29 (human colorectal adenocarcinoma); test: Cell growth assay (trypan blue), HT-29; format: cell-based; conditions: HT-29, 72 h of incubation
[3] = biological target: T1, human recombinant MAO-B (Homo sapiens, UniProt P27338); test: Monoamine oxidase inhibition assay (Amplex Red, kynuramine), MAO-B; conditions: for mode of inhibition: Lineweaver–Burk double-reciprocal plots, MAO-B; for Ki: read-out: Ki MAO-B, kynuramine substrate, pH 7.4, 37°C
T1 sequence (P27338 1-520): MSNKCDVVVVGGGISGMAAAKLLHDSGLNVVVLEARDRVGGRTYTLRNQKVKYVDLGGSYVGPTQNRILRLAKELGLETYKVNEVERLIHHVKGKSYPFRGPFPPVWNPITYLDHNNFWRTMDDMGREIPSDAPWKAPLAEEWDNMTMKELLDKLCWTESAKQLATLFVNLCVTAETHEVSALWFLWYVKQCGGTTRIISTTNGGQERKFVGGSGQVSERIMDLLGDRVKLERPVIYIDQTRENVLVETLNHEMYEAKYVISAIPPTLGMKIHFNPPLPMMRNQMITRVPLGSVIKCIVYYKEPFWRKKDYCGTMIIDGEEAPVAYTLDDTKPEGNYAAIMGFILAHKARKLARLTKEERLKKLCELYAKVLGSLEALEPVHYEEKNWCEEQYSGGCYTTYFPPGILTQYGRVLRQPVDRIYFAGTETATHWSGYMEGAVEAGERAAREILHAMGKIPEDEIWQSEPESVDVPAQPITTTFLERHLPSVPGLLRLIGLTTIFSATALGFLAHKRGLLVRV
Description: (§1) Materials. Human recombinant MAO-A and MAO-B were expressed in baculovirus infected BT1 cells (5 mg/ml) and horseradish peroxidases were purchased from Fluka-Sigma-Aldrich s.r.l. (Italy). A Cary-Eclipse fluorimeter (Varian Inc., Palo Alto, CA, USA) was employed for fluorescence measurements.
(§2) Monoamine oxidase inhibition assay. Monoamine oxidase activity was determined by measuring H2O2 generation rate by a peroxidase-coupled continuous assay, using the Amplex Red reagent as fluorogenic substrate for horseradish peroxidase.1 All experiments were carried out as previously reported,2 in 100 mM potassium phosphate buffer, 0.1 mM EDTA, pH 7.4 and at 37°C. The assays were carried out in a final volume of 800 L, in the presence of Amplex Red (100 M) and horseradish peroxidase type II (5 UmL -1), and using kynuramine (20-1200 M) as common MAO-A and MAO-B substrate. h-MAO-A and h-MAO-B concentration in the assay solutions were 3 and 6 g/ml, respectively. After 5 min of pre-incubation of the enzyme with the compounds, substrate was added and the initial rates of reaction were recorded. The rates of the enzymatic reaction were determined by detecting the increase in the fluorescence intensity at
(§3) The generation rate of H2O2 was calculated from the increase of fluorescence intensity by means of calibration curves obtained using standard solution of H2O, in
M of maxima concentrations tested).
(§4) Steady state kinetic parameters (V max and K m) were calculated by fitting the Michaelis-Menten equation to the experimental data (initial velocity vs substrate concentrations), with Sigma Plot software, version 9.0 (Jandel Scientific, San Rafael, CA, USA). The mode of inhibition was determined by global fit analysis (GraphPad 9.0 software, GraphPad Software, San Diego, CA,
(§5) USA) of the initial velocity (V0) vs substrate concentration plots, at various inhibitor concentrations. The competitive, mixed, non-competitive and uncompetitive inhibition models were analysed and the fit giving the highest r2 value was chosen for the calculation of inhibition
(§6) compounds, experimental data are presented as double reciprocal Lineweaver-Burk plots (1/v vs 1/S). Ki values are expressed as mean ±S.D. All experiments were carried out at least in

[4] = biological target: T2, human recombinant MAO-A (Homo sapiens, UniProt P21397); test: Monoamine oxidase inhibition assay (Amplex Red, kynuramine), MAO-A; conditions: read-out: Ki MAO-A; kynuramine substrate, pH 7.4, 37°C
T2 sequence (P21397 1-527): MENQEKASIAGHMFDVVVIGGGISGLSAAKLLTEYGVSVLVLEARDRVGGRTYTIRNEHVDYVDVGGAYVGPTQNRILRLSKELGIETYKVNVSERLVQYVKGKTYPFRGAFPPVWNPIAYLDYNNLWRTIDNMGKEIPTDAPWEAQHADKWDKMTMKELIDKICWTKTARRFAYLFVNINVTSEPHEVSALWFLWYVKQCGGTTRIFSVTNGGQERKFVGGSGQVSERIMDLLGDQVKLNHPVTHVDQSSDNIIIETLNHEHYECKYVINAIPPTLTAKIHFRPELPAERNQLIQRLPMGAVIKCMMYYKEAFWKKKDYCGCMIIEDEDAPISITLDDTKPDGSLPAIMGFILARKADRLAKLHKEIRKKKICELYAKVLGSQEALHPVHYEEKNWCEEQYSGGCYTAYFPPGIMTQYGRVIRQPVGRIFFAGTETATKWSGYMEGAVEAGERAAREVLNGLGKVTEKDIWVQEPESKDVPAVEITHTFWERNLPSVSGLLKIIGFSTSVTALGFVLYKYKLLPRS
Description: as §1, §2, §3
M of maxima concentrations tested).
as §4, §5, §6

[5] = test system: recombinant MAO-A or MAO-B; test: Reversibility assay (dialysis/ultrafiltration); format: biochemical, human; conditions: incubated at 4 times the Ki value for 20 min before dialysis
[6] = test system: Met-5A (human mesothelial cells); test: Cell growth assay (trypan blue), Met-5A; format: cell-based; conditions: nontumorigenic Met-5A mesothelial cells
Description: fluorescence measurements.
prepared in dimethylsulfoxide.
performed to determine cell viability.
µM of maxima concentrations tested).
The mode of inhibition was […]

[7] = test system: MAO-B; design: method as in PMID 26337020, PMID 28577983; conditions: previously tested; ref [19],[23]; cited from earlier work

In the case of `O=C(/C=C/c1ccccc1[N+](=O)[O-])c1ccccc1` [Compound 1], the GI50 [1] is reported as over 20 µM, the GI50 [2] is reported as over 20 µM and the mode of inhibition [3] is reported as “competitive behavior”. It also gave a Ki [3] of 0.4 ± 0.08 µM and a Ki [4] of 2.2 µM.
For `O=C(/C=C/c1cccc([N+](=O)[O-])c1)c1ccccc1` [Compound 2], the GI50 [1] was 2.8 ± 0.3 µM, the GI50 [2] was 5 ± 1.8 µM and the Ki [3] was 0.071 ± 0.011 µM. It also gave a Ki [4] of 2.5 µM.
Compound `O=C(/C=C/c1ccc([N+](=O)[O-])cc1)c1ccccc1` [Compound 3] has a GI50 [1] of 7.5 ± 1.3 µM and a GI50 [2] of 15.5 ± 3.9 µM.
`O=C(/C=C/c1ccccc1C(F)(F)F)c1ccccc1` [Compound 4] showed a GI50 [1] of 7.2 ± 0.3 µM and a GI50 [2] of 11.7 ± 3.6 µM.
With `O=C(/C=C/c1cccc(C(F)(F)F)c1)c1ccccc1` [Compound 5] the GI50 [1] was 10 ± 0.4 µM and the GI50 [2] was 12.7 ± 3.2 µM.
`O=C(/C=C/c1ccc(C(F)(F)F)cc1)c1ccccc1` [Compound 6] showed a GI50 [1] of 14 ± 0.9 µM and a GI50 [2] of 12.2 ± 0.4 µM.
`COc1ccccc1/C=C/C(=O)c1ccccc1` [Compound 7] showed a GI50 [1] of 13.8 ± 0.3 µM and a GI50 [2] of 13 ± 4 µM.
For `COc1cccc(/C=C/C(=O)c2ccccc2)c1` [Compound 8], the GI50 [1] was 13.2 ± 2.2 µM and the GI50 [2] was 14.5 ± 0.7 µM.
`COc1ccc(/C=C/C(=O)c2ccccc2)cc1` [Compound 9] gave a GI50 [1] of 14.4 ± 3.5 µM and a GI50 [2] of 16.7 ± 2.5 µM.
Compound `O=C(/C=C/c1ccccc1)c1ccccc1[N+](=O)[O-]` [Compound 10] has a GI50 [1] of 5.8 ± 0.8 µM and a GI50 [2] of 8.3 ± 1.4 µM.
With `O=C(/C=C/c1ccccc1)c1cccc([N+](=O)[O-])c1` [Compound 11] the GI50 [1] was 4.3 ± 1.5 µM and the GI50 [2] was 9 ± 0.1 µM.
Compound `O=C(/C=C/c1ccccc1)c1ccccc1C(F)(F)F` [Compound 12] has a GI50 [1] of 5.8 ± 2.9 µM and a GI50 [2] of 10.8 ± 0.4 µM.
For `O=C(/C=C/c1ccccc1)c1cccc(C(F)(F)F)c1` [Compound 13], the GI50 [1] was over 20 µM, the “MAO activity after dialysis (reversibility)” value [5] was “fully recovered” and the GI50 [2] was over 20 µM. The GI50 [6] was over 20 µM, the mode of inhibition [3] was “competitive mode of inhibition” and the Ki [3] was 0.005 ± 0.0005 µM. For the same compound, the Ki [4] was 4.6 µM.
For `O=C(/C=C/c1ccccc1)c1ccc(C(F)(F)F)cc1` [Compound 14], the mode of inhibition [3] was “competitive behavior”, the Ki [3] was 0.0146 ± 0.0001 µM and the Ki [4] was 9.2 µM.
For `COc1ccccc1C(=O)/C=C/c1ccccc1` [Compound 15], the GI50 [1] is listed as 7.3 ± 1.1 µM, the “inhibitory potency on MAO-B” value [7] is listed as “lower inhibitory potency than for 17” and the GI50 [2] is listed as 14.8 ± 2 µM.
For `COc1cccc(C(=O)/C=C/c2ccccc2)c1` [Compound 16], the GI50 [1] is given as 8 ± 0.1 µM, the “inhibitory potency on MAO-B” value [7] is given as “lower inhibitory potency than for 17” and the GI50 [2] is given as 14.7 ± 2.5 µM.
`COc1ccc(C(=O)/C=C/c2ccccc2)cc1` [Compound 17] showed a GI50 [1] of 6.8 ± 1 µM, a GI50 [2] of 11.7 ± 3.7 µM and a GI50 [6] of about 11.8 µM. For the same compound, the Ki [3] was 0.022 µM and 0.0219 µM and the Ki [4] was 13 µM.
For `O=C(/C=C/c1ccccc1)c1ccccc1` [chalcone], the GI50 [6] was about 7 µM, the mode of inhibition [3] was “competitive behavior” and the Ki [3] was 0.056 ± 0.006 µM. It also gave a Ki [4] of 14.6 µM.
Compound `C[C@H](NCc1ccc(OCc2cccc(F)c2)cc1)C(N)=O` [safinamide, reference compound] has a GI50 [1] of over 20 µM, a GI50 [2] of over 20 µM and a GI50 [6] of over 20 µM. For the same compound, the mode of inhibition [3] was “standard competitive inhibitor”.
